According to patent US5212187A, “Pyridyl alkylamine compounds which are useful against histamine H1 and H2 receptors” (Zyma SA, priority 1991, dated 1993):

Legend:
histamine H1 -receptors = biological target: T1, histamine H1 -receptors (Cavia porcellus, UniProt P31389); assay: in vitro histamine H1-antagonism on isolated guinea pig ileum; conditions: cumulative concentration/action curves (van Rossum), read-out: H1 -antagonism ileum -log KB (converted)
T1 construct: isolated guinea pig ileum (H1); from tissue; host or cells: isolated guinea pig ileum
Text: (§1) The compounds of formula I according to the invention are distinguished by a novel overall pharmacological activity that has not been described hitherto. […] Suitable for differentiating the two types of action are, for example, in vitro tests on isolated spontaneously beating guinea pig right atrium (H2) and on isolated guinea pig ileum (H1) (Black, J. W.; Duncan, W. A. M.; Durant, G. J., Ganellin, C. R.; Parsons, M. E. (1972), "Definition and Antagonism of Histamine H2 -receptors", Nature 236, 385-390). The concentration/action curves for determining the pharmacological parameters (-log KB) are recorded using a cumulative technique according to van Rossum, J. M. (1963), "Cumulative Dose-Response Curves. II. Technique for the Making of Dose-Response Curves in Isolated Organs and the Evaluation of Drug Parameters", Arch. Int. Pharmacodyn. Ther. 143, 299-307.
(§2) (determined from isolated guinea pig ileum and atrium, […]

histamine H2 -receptors = biological target: T2, histamine H2 -receptors (Cavia porcellus, UniProt P47747); assay: in vitro histamine H2-antagonism on isolated spontaneously beating guinea pig right atrium; conditions: cumulative concentration/action curves (van Rossum), read-out: H2 -antagonism atrium -log KB (converted)
T2 construct: isolated spontaneously beating guinea pig right atrium (H2); from tissue; host or cells: isolated spontaneously beating guinea pig right atrium
Text: as §1, §2

T2 sequence (P47747 whole entry): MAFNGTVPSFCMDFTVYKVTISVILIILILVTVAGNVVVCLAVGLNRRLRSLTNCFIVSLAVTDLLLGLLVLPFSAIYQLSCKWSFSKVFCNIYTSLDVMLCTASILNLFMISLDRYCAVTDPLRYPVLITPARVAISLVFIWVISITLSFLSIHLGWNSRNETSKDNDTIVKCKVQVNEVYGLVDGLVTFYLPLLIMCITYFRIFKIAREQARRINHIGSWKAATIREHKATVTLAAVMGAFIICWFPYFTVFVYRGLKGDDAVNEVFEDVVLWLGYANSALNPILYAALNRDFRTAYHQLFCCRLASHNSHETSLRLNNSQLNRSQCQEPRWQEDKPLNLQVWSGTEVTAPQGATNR
T1 sequence (P31389 whole entry): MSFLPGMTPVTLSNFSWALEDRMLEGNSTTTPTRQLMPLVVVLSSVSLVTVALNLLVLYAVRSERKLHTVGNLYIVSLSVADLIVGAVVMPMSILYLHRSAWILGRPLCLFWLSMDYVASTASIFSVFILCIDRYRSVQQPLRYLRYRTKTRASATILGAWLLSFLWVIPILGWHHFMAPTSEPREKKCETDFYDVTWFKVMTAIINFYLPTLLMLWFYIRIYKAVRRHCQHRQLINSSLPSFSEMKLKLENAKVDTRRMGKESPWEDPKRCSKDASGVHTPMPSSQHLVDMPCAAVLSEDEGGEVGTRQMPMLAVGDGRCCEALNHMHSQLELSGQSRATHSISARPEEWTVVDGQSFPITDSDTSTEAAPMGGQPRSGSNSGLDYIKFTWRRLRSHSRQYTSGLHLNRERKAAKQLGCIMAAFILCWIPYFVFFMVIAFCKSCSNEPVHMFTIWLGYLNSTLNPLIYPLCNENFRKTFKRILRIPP

| SMILES | Kb (histamine H1 -receptors) [nM] | Kb (histamine H2 -receptors) [nM] |
| --- | --- | --- |
| CN(C)Cc1ccc(CSCCNC(=O)NCCCCN(C)CCN(Cc2ccc(F)cc2)c2ccccn2)o1 [Example 103, N-[2-[[5-[(dimethylamino)methyl]furfuryl]thio]ethyl]-N'-[4-[N-[2-[N-(4-fluorobenzyl)-N-(2-pyridyl)amino]ethyl]-N-methylamino]butyl]urea] | 24.5 | 1200 |
| CN(C)Cc1ccc(CSCCNC(=C[N+](=O)[O-])NCCCN(C)CCN(Cc2ccc(F)cc2)c2ccccn2)o1 [Example 104, N-[2-[[5-[(dimethylamino)methyl]furfuryl]thio]ethyl]-N'-[3-[N-[2-[N-(4-fluorobenzyl)-N-(2-pyridyl)amino]ethyl]-N-methylamino]propyl]-2-nitro-1,1-ethenediamine] | 10.7 | 1350 |
| CC(C1=C(CCN(C)CCCCCCNC(=C[N+](=O)[O-])NCCSCc2csc(N=C(N)N)n2)Cc2ccccc21)c1ccccn1 (stereo not drawn) [Example 105, N-[2-[[(2-guanidino-4-thiazolyl)methyl]thio]ethyl]-N'-[6-[N-methyl-N-[2-[1-(2-pyridyl)ethyl]inden-2-yl]ethylamino]hexyl]-2-nitro-1,1-ethenediamine] | 36.3 | 28.8 |
